In patent US10898469B2, “Imidazolylamide derivative” (Sumitomo Dainippon Pharma Co., Ltd., priority 2016, dated 2021):
Counter-ions that a name gives are not always drawn.

Legend:
Assay type in all cases: cell-based, human
HT-29 cells [1] = experiment: Inhibition test for sphere-forming ability of cancer cells in the presence of BSA (Test Example 2), HT-29; conditions: in the presence of 5% BSA, cultured 4 days
Method: (§1) Human colorectal cancer-derived HCT-116 cells, human colon-adenocarcinoma-derived HT-29 cells, and human pharyngeal cancer-derived FaDu cells were available from American Type Culture Collection (ATCC). HCT-116 cells and HT-29 cells were cultured at 37° C. under 5% CO2 using the McCoy's 5a medium containing 10% fetal bovine serum (FBS) and 1% penicillin/streptomycin, and FaDu cells were cultured at 37° C. under 5% CO2 using the MEM medium containing 10% FBS, 1% non-essential amino acid, 1% sodium pyruvate, 5% bovine serum albumin (BSA), and 1% penicillin/streptomycin. HCT-116 cells, HT-29 cells, and FaDu cells were seeded in a 384 Well Black Clear Bottom Ultra-Low Attachment Microplate (Corning Cat. No. 3827) in an amount of 350-800 cells/well using the DMEM/F12 medium containing 2% B27 supplement (GIBCO), 20 ng/mL epidermal growth factor (EGF) (peprotech), 10 ng/mL basic fibroblast growth factor (bFGF) (peprotech), 5 μg/mL insulin (Sigma), 5% bovine serum albumin (BSA), and 1% penicillin/streptomycin. Each test compound was added into each well to adjust the final concentration of DMSO to 0.1%, and the cells were cultured for 4 days. The number of viable cells in each well was then measured with CellTiter-Glo® Luminescent Cell Viability Assay (Promega) to calculate the concentration of each test compound for 50% inhibition of cell proliferation (Sphere IC50 value; μmol/L).
(§2) The experiment of Test Example 2 was performed for each compound of each Example.
(§3) The concentration of each test compound for 50% inhibition of cell proliferation (Sphere IC50 value; μmol/L) is shown in the following Table.

FaDu cells [2] = experiment: Inhibition test for sphere-forming ability of cancer cells in the presence of BSA (Test Example 2), FaDu; conditions: in the presence of 5% BSA, cultured 4 days
Method: as §1, §2, §3

HT-29 cells [3] = experiment: Inhibition test for sphere-forming ability of cancer cells (Test Example 1), HT-29; conditions: concentration for 50% inhibition of cell proliferation, read-out: IC50 (μmol/L) HT-29 (Sphere IC50 value)
Procedure, shortened: (§4)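 HCT-116, HT-29 and FaDu cells seeded at 350-800 cells/well on ultra-low attachment plates in serum-free DMEM/F12 with B27, 20 ng/mL EGF, 10 ng/mL bFGF and 5 μg/mL insulin. Compound given at 0.1% DMSO for 4 days; viable cells measured by CellTiter-Glo to give Sphere IC50 (μmol/L).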

FaDu cells [4] = experiment: Inhibition test for sphere-forming ability of cancer cells (Test Example 1), FaDu; conditions: concentration for 50% inhibition of cell proliferation, read-out: IC50 (μmol/L) FaDu (Sphere IC50 value)
Procedure, shortened: as §4

HCT-116 cells [5] = experiment: Inhibition test for sphere-forming ability of cancer cells (Test Example 1), HCT-116; conditions: for IC50: HCT-116 cells, concentration for 50% inhibition of cell proliferation, read-out: IC50 (μmol/L) HCT-116 (Sphere IC50 value); for inhibitory effect on the sphere-forming ability of cancer cells: Test Example 1, summary in words, cell line not given (HCT-116, HT-29, FaDu tested)
Procedure, shortened: as §4

HCT-116 cells [6] = experiment: Inhibition test for sphere-forming ability of cancer cells in the presence of BSA (Test Example 2), HCT-116; conditions: for IC50: HCT-116 cells, in the presence of 5% BSA, cultured 4 days; for inhibitory effect on the sphere-forming ability of cancer cells: Test Example 2, in the presence of 5% BSA, summary in words, cell line not given (HCT-116, HT-29, FaDu tested)
Procedure, shortened: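 Spheres grown 4 days in ultra-low-attachment wells, 350-800 cells/well, in DMEM/F12 with 2% B27, 20 ng/mL EGF, 10 ng/mL bFGF, 5 μg/mL insulin and 5% BSA; 0.1% DMSO final. Viable cells read by CellTiter-Glo luminescence; Sphere IC50 (μmol/L) for 50% proliferation inhibition.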

| SMILES | IC50 (HT-29 cells [1]) [nM] | IC50 (FaDu cells [2]) [nM] | IC50 (HT-29 cells [3]) [µmol/L] | IC50 (FaDu cells [4]) [µmol/L] | IC50 (HCT-116 cells [5]) [µmol/L] | inhibitory effect on the sphere-forming ability of cancer cells (HCT-116 cells [5]) | IC50 (HCT-116 cells [6]) [µM] | inhibitory effect on the sphere-forming ability of cancer cells (HCT-116 cells [6]) | IC50 (HT-29 cells [1]; Homo sapiens, 96 h) [nM] | IC50 (FaDu cells [2]; Homo sapiens, 96 h) [nM] | IC50 (HT-29 cells [3]; Homo sapiens) [µmol/L] | IC50 (FaDu cells [4]; Homo sapiens) [µmol/L] | IC50 (HCT-116 cells [5]; Homo sapiens) [µmol/L] | IC50 (HCT-116 cells [6]; Homo sapiens, HCT-116, 96 h) [µM] |
| --- | --- | --- | --- | --- | --- | --- | --- | --- | --- | --- | --- | --- | --- | --- |
| CNc1ccc(/C=C/C(=O)Nc2cn(Cc3cccc(C(F)(F)F)c3)cn2)cn1 [Example 17] | 350 | 50 | 0.04 | 0.08 | 0.08 | particularly potent inhibitory effect | 0.64 | particularly potent inhibitory effect | – | – | – | – | – | – |
| CCNc1ccc(/C=C/C(=O)Nc2cn(Cc3cccc(Cl)c3)cn2)cn1 [Example 18] | 50 | 30 | 0.02 | 0.06 | 0.07 | particularly potent inhibitory effect | 0.58 | particularly potent inhibitory effect | – | – | – | – | – | – |
| COc1ccc(/C=C/C(=O)Nc2cn(Cc3cc(F)c(F)c(F)c3)cn2)cc1OCCO [Example 32, (E)-3-(3-(2-Hydroxyethoxy)-4-methoxyphenyl)-N-(1-(3,4,5-trifluorobenzyl)-1H-imidazol-4-yl)acrylamide] | – | – | – | – | – | particularly potent inhibitory effect | – | particularly potent inhibitory effect | 60 | 30 | 0.07 | 0.06 | 0.06 | 0.06 |
| COc1ccc(/C=C/C(=O)Nc2cn(Cc3cccc(C(F)(F)F)c3)cn2)cc1OCCO [Example 34, (2E)-3-[3-(2-hydroxyethoxy)-4-methoxyphenyl]-N-{1[3-(trifluoromethyl)benzyl]-1H-imidazol-4-yl}prop-2-enamide] | – | – | – | – | – | particularly potent inhibitory effect | – | particularly potent inhibitory effect | 580 | 70 | 0.06 | 0.09 | 0.09 | 0.63 |
| N#Cc1ccc(/C=C/C(=O)Nc2cn(Cc3cccc(Cl)c3)cn2)cc1OCCO [Example 35, (2E)-N-[1-(3-chlorobenzyl)-1H-imidazol-4-yl]-3-[4-cyano-3-(2-hydroxyethoxy)phenyl]prop-2-enamide] | – | – | – | – | – | particularly potent inhibitory effect | – | – | 540 | 60 | 0.07 | 0.08 | 0.08 | 0.72 |
| N#Cc1ccc(/C=C/C(=O)Nc2cn(Cc3cccc(C(F)(F)F)c3)cn2)cc1OCCO [Example 36, (E)-3-(4-Cyano-3-(2-hydroxyethoxy)phenyl)-N-(1-(3-(trifluoromethyl)benzyl)-1H-imidazol-4-yl)acrylamide] | – | – | – | – | – | particularly potent inhibitory effect | – | particularly potent inhibitory effect | 520 | 60 | 0.06 | 0.08 | 0.08 | 0.69 |
| Cl.O=C(/C=C/c1ccc(F)c(O)c1)Nc1cn(Cc2cccc(C(F)(F)F)c2)cn1 [Example 37, (E)-3-(4-Fluoro-3-hydroxyphenyl)-N-(1-(3-(trifluoromethyl)benzyl)-1H-imidazol-4-yl)acrylamide Hydrochloride] | – | – | – | – | – | particularly potent inhibitory effect | – | particularly potent inhibitory effect | 100 | < 10 | 0.93 | < 0.01 | 0.25 | 0.55 |
| Cl.O=C(/C=C/c1ccc(F)c(O)c1)Nc1cn(Cc2cccc(Cl)c2)cn1 [Example 38] | – | – | – | – | – | particularly potent inhibitory effect | – | – | 580 | 30 | 0.89 | < 0.01 | 0.15 | 0.72 |
| O=C(/C=C/c1ccc(F)c(OCCO)c1)Nc1cn(Cc2cccc(C(F)(F)F)c2)cn1 [Example 39, (E)-3-(4-Fluoro-3-(2-hydroxyethoxy)phenyl)-N-(1-(3-(trifluoromethyl)benzyl)-1H-imidazol-4-yl)acrylamide Hydrochloride] | – | – | – | – | – | – | – | – | 2710 | 580 | 0.45 | 0.07 | 0.42 | 6.86 |
| O=C(/C=C/c1ccc(F)c(OCCO)c1)Nc1cn(Cc2cccc(Cl)c2)cn1 [Example 40] | – | – | – | – | – | – | – | – | 3330 | 580 | 0.18 | 0.05 | 0.48 | 7.45 |
| O=C(/C=C/c1cccnc1)Nc1cn(Cc2cccc(Cl)c2)cn1 [Example 41, (2E)-N-[1-(3-chlorobenzyl)-1H-imidazol-4-yl]-3-(pyridin-3-yl)prop-2-enamide] | – | – | – | – | – | – | – | – | 4290 | 590 | 0.54 | 0.73 | 0.89 | 5.79 |
| O=C(/C=C/C=C/c1ccccc1)Nc1cn(Cc2cccc(Cl)c2)cn1 [Example 46, (2E,4E)-N-(1-(3-Chlorobenzyl)-1H-imidazol-4-yl)-5-phenylpenta-2,4-dienamide] | – | – | – | – | – | – | – | – | 7600 | 4670 | 0.62 | 0.79 | 2.62 | > 10 |
| COc1ccc(C(=O)Nc2cn(Cc3cccc(Cl)c3)cn2)cc1OC [Example 141, N-[1-(3-chlorobenzyl)-1H-imidazol-4-yl]-3,4-dimethoxybenzamide] | – | – | – | – | – | – | – | – | 650 | 550 | 0.52 | 0.85 | 0.63 | 4.93 |
| COc1ccc(C(=O)Nc2cn(Cc3cc(F)c(F)cc3F)cn2)cc1OC [Example 143, 3,4-Dimethoxy-N-[1-(2,4,5-trifluorobenzyl)-1H-imidazol-4-yl]benzamide] | – | – | – | – | – | – | – | – | 5210 | 960 | 0.84 | 0.93 | 0.95 | 6.35 |
| COc1ccc(C(=O)Nc2cn(Cc3ccccc3F)cn2)cc1OC [Example 144] | 5600 | 4320 | 4.71 | 5.81 | 5.72 | – | > 10 | – | – | – | – | – | – | – |
| COc1ccc(C(=O)Nc2cn(Cc3cccc(F)c3)cn2)cc1OC [Example 145] | 630 | 340 | 0.62 | 0.7 | 0.62 | – | 1.62 | – | – | – | – | – | – | – |
| COc1ccc(C(=O)Nc2cn(Cc3ccc(F)cc3)cn2)cc1OC [Example 146] | 810 | 550 | 0.74 | 0.8 | 0.64 | – | 6.02 | – | – | – | – | – | – | – |
| COc1ccc(C(=O)Nc2cn(Cc3cccc(F)c3F)cn2)cc1OC [Example 147] | 5970 | 910 | 0.83 | 3.12 | 0.78 | – | 6.83 | – | – | – | – | – | – | – |
| COc1ccc(C(=O)Nc2cn(Cc3ccc(F)cc3F)cn2)cc1OC [Example 148] | 6780 | 5060 | 4.74 | 8 | 5.2 | – | > 10 | – | – | – | – | – | – | – |
| COc1ccc(C(=O)Nc2cn(Cc3cc(F)ccc3F)cn2)cc1OC [Example 149] | 6180 | 2420 | 0.75 | 0.89 | 4.77 | – | 7.75 | – | – | – | – | – | – | – |
